{"source": "paper PMC9668969", "about": "(Nature Communications, 2022)", "system": "WT ELIC", "test": "Asymmetric liposome stopped-flow Tl+ flux assay (no exchange vs exchange, 25 mol% outer leaflet POPG)", "assay_type": "biochemical, Erwinia chrysanthemi", "set-up": "key to Tl+ flux quenching rate, Avg. / Tl+ flux quenching rate: Tl+ influx rate kt at 2 ms from stretched-exponential fit (Eq. 2b)", "settings": "for Tl+ flux quenching rate, Avg. / Tl+ flux quenching rate: Exchange: WT in 3:1 PC:PE, 25% POPG in outer leaflet by beta-CD; for Tl+ flux quenching rate: single experiments", "description": "The fluorescence sequential-mixing stopped-flow liposomal flux measurements were carried using an SX20 stopped-flow spectrofluorometer (Applied Photophysics) and Pro-Data SX software[13],[30]. 7.5 mg of the respective lipid mixture (POPC, 1:1 POPC: POPE, 1:1 POPC:POPG, 3:1 POPC:POPE, 3:1 POPC:POPG, 2:1:1 POPC:POPE:POPG) was dried in a glass vial to a thin film under a constant stream of N2. The lipids were then further dried under vacuum in a desiccator overnight. The following day the lipids were hydrated in 500 µl of reconstitution buffer (100 mM NaNO3, 10 mM HEPES, pH 7) (Buffer R), 250 µl of 75 mM 8-Aminonaphthalene-1,3,6-Trisulfonic Acid (ANTS, ThermoFisher Scientific) in buffer R, and doped with ~18 mg of CHAPS (Anatrace). The mixture was vortexed and then sonicated with heat until completely solubilized. Following the sonication, the solution was brought to RT then 3.5 µl of 6.7 mg/ml ELIC in Buffer A with 0.02% DDM was added (3 µg per mg of lipid). This combined solution was incubated at RT for 30 min, followed by the addition of 1 ml of 1:1 v/v SM-2 BioBeads in Buffer R and an additional 250 µl of 75 mM ANTS in Buffer R. This mixture was incubated at RT for 2.5 hr with gentle mixing. The liposome suspension was then extruded with an Avanti mini-extruder and 0.1 µm membrane (30×). The extruded liposomes were stored at 13 °C overnight with gentle rotation. The next day, the liposomes were diluted to 2.5 mL using assay buffer (140 mM NaNO3, 10 mM HEPES, pH 7) (Stopped-flow Buffer A), loaded into a PD-10 desalting column (Cytiva), eluted with 3 mL of Stopped-flow Buffer A and subsequently diluted 5-fold with Stopped-flow Buffer A.\nUsing propylamine as the agonist, the assay and analysis was carried out as previously described[13],[30]. ELIC-containing liposomes were first mixed 1:1 with Buffer A containing 2× the concentration of propylamine. After a variable delay of 10 ms to 25 s, the sample was then mixed 1:1 with a quenching buffer (90 mM NaNO3, 50 mM TlNO3, 10 mM HEPES, pH 7), and ANTS fluorescence (ex. 360 nm, fluorescence above 420 nm) was recorded for 1 s. For each delay time, 5 repeat measurements were obtained. The data were collected using Applied Photophysics Pro-Data SX software. The fluorescence quenching traces were fit to a stretched exponential (Eq. 2a) and the rate of Tl^+ influx was determined at 2 ms (Eq. 2b).2a Ft=F∞+F0−F∞⋅e^−t/τ^β 2b kt=β/τ⋅2ms/τ^(β−1) where Ft, F∞, F0 are the fluorescence at time t, final fluorescence and initial fluorescence. τ is the time constant, β the stretched exponential factor, and kt the calculated rate of Tl^+ influx at 2 ms. The time course of desensitization was also fit to a double exponential and a weighted time constant was calculated as was done for the patch-clamp data using Origin 2019b. All replicates were taken from independent samples.\nAcceptor liposomes were prepared as described in the Stopped-flow fluorescence recordings section until completion of the extrusion step. The preparation was scaled up 2x to produce samples for the no-exchange and exchange conditions. After extrusion and storage of the liposomes overnight at 13 °C, the double liposome preparation was split into two equal volume aliquots of ~1.5 ml. Using the excel spreadsheet provided by Markones et al.[44], donor POPG and methyl-β-cyclodextrin (MβCD, Sigma) concentrations and volumes were calculated to produce an outer leaflet POPG content of 25 mol% in the liposomes. The calculations assumed a ~6.66 mM lipid concentration and 1.5 mL volume of the acceptor liposome solution[44]. A MβCD-POPG (50% saturation of MβCD by POPG) solution was formed by combining 224 µL 7.5 mM POPG in Stopped-flow Buffer A, 650 µl 300 mM MβCD in Stopped-flow Buffer A, and 126 µL Stopped-flow Buffer A, which was then mixed at 50 °C and 1000 RPM for 20 min using an Eppendorf thermomixer. […]", "key": {"[1]": {"settings": "25 mol% in outer leaflet, 10 mM propylamine"}, "[2]": {"settings": "10 mM propylamine, delay 0.01 s"}, "[3]": {"settings": "10 mM propylamine, delay 0.05 s"}, "[4]": {"settings": "10 mM propylamine, delay 0.25 s"}}, "note": "“And” between values parts separate entries of the source, which are not always exact repeats. Equal values may be shown once.", "data": [{"smiles": "CCCCCCCC/C=C\\CCCCCCCC(=O)OC(COC(=O)CCCCCCCCCCCCCCC)COP(=O)(O)OCC(O)CO", "note": "(stereo not drawn) [POPG, 1-palmitoyl-2-oleoyl-phosphatidylglycerol]", "values": [{"measurement": "time constant of desensitization", "setting": "25% POPG introduced to the outer leaflet", "result": "~ 6 s"}, {"measurement": "effect on peak agonist response", "setting": "[1]", "result": "increased the peak agonist response approximately two-fold"}, {"measurement": "effect on rate of desensitization", "setting": "[1]", "result": "reduced the rate of desensitization"}, {"measurement": "Tl+ flux quenching rate, Avg.", "setting": "[2]", "result": 18.3739}, {"measurement": "Tl+ flux quenching rate, Avg.", "setting": "10 mM propylamine, delay 0.025 s", "result": 13.1397}, {"measurement": "Tl+ flux quenching rate, Avg.", "setting": "[3]", "result": 28.9905}, {"measurement": "Tl+ flux quenching rate, Avg.", "setting": "10 mM propylamine, delay 0.1 s", "result": 40.2879}, {"measurement": "Tl+ flux quenching rate, Avg.", "setting": "[4]", "result": 49.694}, {"measurement": "Tl+ flux quenching rate, Avg.", "setting": "10 mM propylamine, delay 0.5 s", "result": 74.7874}, {"measurement": "Tl+ flux quenching rate, Avg.", "setting": "10 mM propylamine, delay 1 s", "result": 70.2446}, {"measurement": "Tl+ flux quenching rate, Avg.", "setting": "10 mM propylamine, delay 2.5 s", "result": 59.7249}, {"measurement": "Tl+ flux quenching rate, Avg.", "setting": "10 mM propylamine, delay 5 s", "result": 40.3668}, {"measurement": "Tl+ flux quenching rate, Avg.", "setting": "10 mM propylamine, delay 10 s", "result": 38.6421}, {"measurement": "Tl+ flux quenching rate, Avg.", "setting": "10 mM propylamine, delay 25 s", "result": 9.131}, {"measurement": "Tl+ flux quenching rate", "setting": "[2]", "result": "25.3857 and 14.5673 and 13.3121 and 20.2302"}, {"measurement": "Tl+ flux quenching rate", "setting": "[3]", "result": "31.4624 and 22.583 and 30.1073 and 31.8092"}, {"measurement": "Tl+ flux quenching rate", "setting": "[4]", "result": "55.8845 and 34.2232 and 67.362 and 41.3064"}, {"measurement": "Tl+ flux quenching rate", "setting": "10 mM propylamine, delay 0.5 s", "result": "114.141 and 61.2513 and 65.8238 and 57.9331"}]}]}
